Assay results: PubChem BioAssay (NCI)
Several values for one entry are separate records, joined by “and”; a condition that tells them apart may be missing. Identical values can stand only once.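 How tested: cells in 96-well plates exposed to compound for 48 hours at five concentrations. The concentration for 50% growth inhibition is given as GI50. TGI denotes the concentration required for complete inhibition of growth.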

Assays:
Assay in all cases: growth of human tumour cells (NCI), 48 h
UO-31 renal = test system: UO-31 renal
SK-MEL-2 melanoma = test system: SK-MEL-2 melanoma
SN12C renal = test system: SN12C renal
HCT-15 colon = test system: HCT-15 colon
SW-620 colon = test system: SW-620 colon
TK-10 renal = test system: TK-10 renal
MDA-MB-231 breast = test system: MDA-MB-231 breast
DU-145 prostate = test system: DU-145 prostate
PC-3 prostate = test system: PC-3 prostate
CAKI-1 renal = test system: CAKI-1 renal

SMILES	TGI (UO-31 renal) [µM]	TGI (SK-MEL-2 melanoma)	TGI (SN12C renal) [µM]	TGI (HCT-15 colon)	TGI (SW-620 colon) [µM]	TGI (TK-10 renal) [µM]	TGI (MDA-MB-231 breast) [µM]	TGI (DU-145 prostate) [µM]	TGI (PC-3 prostate) [µM]	TGI (CAKI-1 renal) [µM]	GI50 (UO-31 renal) [nM]	GI50 (CAKI-1 renal) [nM]	GI50 (MDA-MB-231 breast) [nM]	GI50 (HCT-15 colon)	GI50 (SW-620 colon) [nM]	GI50 (DU-145 prostate) [nM]	GI50 (PC-3 prostate) [nM]
O=C1c2ccccc2-c2cccc3ccc(Cc4ccc5ccccc5c4)c1c23	> 100	> 100 µM	> 100	> 100 µM	> 100	> 100	–	–	–	–	–	–	–	–	–	–	–
COc1ccc(N2C(=O)CC(Cl)C2=O)cc1 (stereo not drawn)	33	> 100 µM	32.7	33.2 µM	35.2	32.9	36.5	> 100	> 100	–	–	–	–	–	–	–	–
COc1cc(/C=C(\C#N)C(=O)c2ccccc2)ccc1OCc1ccccc1	> 100	> 100 µM	> 100	> 100 µM	> 100	> 100	–	–	–	> 100	–	–	–	–	–	–	–
CC[C@@H]1OC2(C)CC(S(=O)(=O)c3ccccc3O)CC1O2 (stereo partly drawn)	> 100	> 100 µM	> 100	> 100 µM	> 100	–	–	–	–	> 100	–	–	–	–	–	–	–
C=CC1(C(=O)O)CCC(C(C)(C)C)CC1 (stereo not drawn)	> 100	> 100 µM	> 100	> 100 µM	> 100	> 100	–	–	–	> 100	–	–	–	–	–	–	–
Cc1c[nH]c2c(O)cc3c(c12)[C@H](CCl)CN3C(=O)c1cc2cc(NC(=O)Nc3ccc4[nH]c(C(=O)N5C[C@@H](CCl)c6c5cc(O)c5[nH]cc(C)c65)cc4c3)ccc2[nH]1	–	89.3 µM and 8.9e-06 µg/mL and 0.00276 µg/mL	–	> 100 µM and 0.00213 µg/mL	–	–	54.6	–	–	–	29.1	0.268	17.6	47.9 µM and 0.000888 µg/mL	6.8	0.923	23
CC(C)CS(=O)(=O)/C(=C(\c1ccc(Br)cc1)S(=O)(=O)CC(C)C)c1ccc(Br)cc1	> 100	> 100 µM	> 100	> 100 µM	> 100	> 100	–	–	–	> 100	–	–	–	–	–	–	–
NNC(=O)/C(=C/c1ccc(Cl)c(Cl)c1)NC(=O)c1ccccc1	> 100	> 100 µM	> 100	–	> 100	> 100	–	–	–	–	–	–	–	–	–	–	–
COc1cc(Cl)c2c3c(c(C(C)=O)oc13)CCC2	–	–	> 100	> 100 µM	> 100	> 100	–	–	–	> 100	–	–	–	–	–	–	–
CC1C[C@@]2(c3ccccc3)C(=O)CCC[C@H]2N1 (stereo partly drawn)	> 100	> 100 µM	> 100	–	> 100	> 100	–	–	–	> 100	–	–	–	–	–	–	–
COc1ccc(-c2onc(-c3ccc([N+](=O)[O-])cc3)c2C2=NCCN2)cc1	> 100	> 100 µM	> 100	> 100 µM	> 100	–	–	–	–	> 100	–	–	–	–	–	–	–
COc1ccccc1N1C(=O)/C(=C/c2ccc(N(CCC#N)CCC#N)cc2C)N=C1c1cc([N+](=O)[O-])ccc1Cl	> 100	> 100 µM	> 100	> 100 µM	–	> 100	–	–	–	> 100	–	–	–	–	–	–	–
O=C(/C=C/c1ccc([N+](=O)[O-])o1)N1CCN(Cc2ccccc2)CC1	31.3	–	21.3	15.9 µM	21.6	37.9	–	–	–	21.7	–	–	–	–	–	–	–
COC(=O)c1s/c(=N\C(=S)N(C)C)n(-c2ccccc2)c1C(=O)OC	> 100	> 100 µM	> 100	> 100 µM	> 100	> 100	–	–	–	> 100	–	–	–	–	–	–	–
